According to patent US5219867A, “Platelet aggregation inhibitory agents” (priority 1992, dated 1993):
Several values for one entry are separate records, joined by “and”; a condition that tells them apart may be missing. Equal entries are not always repeated. Entries after “also recorded” stand apart in the source; their conditions may differ. Structures can show the parent of a compound that is named as a salt. Where two headings read alike, the source gives them in different places.

Legend:
human blood platelets = assay: In vitro inhibition of ADP-induced human platelet aggregation (platelet-rich plasma, aggregometer); format: cell-based; conditions: for IC50: Homo sapiens, Platelet; for Potency in inhibiting aggregation relative to rac-I: in vitro platelet aggregation
Description: Procedure for Determining In Vitro Platelet Aggregation-Inhibitory Activity. Adenosine diphosphate (ADP) was used to induce platelet aggregation and was utilized as the sodium salt. A 10 mM stock solution was prepared fresh before each use in modified Tyrode's buffer and working dilutions were prepared with modified Tyrode's buffer immediately prior to use. The buffer contained NaCl (137.00 mM), KCl (2.70 mM), NaHCO3 (11.90 mM), NaH2 PO4 H2 O (0.36 mM) and glucose (5.60 mM) in redistilled water. Adjustment to pH 7.4 was effected by addition of 1N HCl.
The blood was transferred into plastic centrifuge tubes containing 3.2% sodium citrate (blood/citrate ratio 8:1) and centrifuged at 120Xg for 15 minutes at 23° C., yielding platelet-rich plasma (PRP); platelet-poor-plasma (PPP) was obtained by centrifugation of citrated whole blood at 1,100Xg for 15 min at 23° C. The platelet count of PRP was determined and adjusted to a final count of 300,000 platelet per mm^3 by dilution with autologous PPP. […] The plasma so obtained was transferred using a 1.0 ml Centaur pipette into a 50 ml polyethylene centrifuge tube. In order to maintain plasma pH in the appropriate range, the air in the tubes are displaced gently (2 minutes) with a 5% (CO2 -95% air (v/v) mixture and the tube capped. The plasma was maintained at 37° C. in a water bath until used in the aggregation experiments.
Assays of platelet aggregation were performed at least in duplicate, using plasma acquired from different donors, employing a method developed by Quintana, et al. (Quintana, et al., Relationships Between the Chemical Constitution of Carbamoylpiperidines and Related Compounds, and Their Inhibition of ADP-Induced Human Blood Platelet Aggregation, Thromb. Res. Vol. 22, Pages 665-680, 1981); Quintana, et al., Effects of Ethanol and of Other Factors on ADP-Induced Aggregation of Human Blood Platelets in Vitro, Thromb. Res., Vol. 20, Pages 405-415, 1980) (cf. Born, Nature, Vol. 194, Pages 927-929, 1962) and Mustard, et al., J. Lab. Clin. Med., Vol. 64, Pages 548-559, 1964).
Initially, in each experiment, 0.45-ml aliquots of PRP were placed in siliconized cuvettes and stirred (1,100 rpm) in the aggregometer at 37° C. to ascertain the absence of spontaneous aggregation. Appropriate ADP solutions (50 μl) were subsequently injected using a Hamilton microliter syringe to determine the minimal concentration eliciting maximal biphasic aggregation. […] In each case, the concentration of ADP so determined was used in eliciting aggregation throughout each specific set of aggregometric evaluations.
0.5 μl of a solution of the evaluant compound in redistilled 95% ethanol was injected into a stirred ([…]) 0.4-ml aliquot of plasma in a siliconized cuvette in the aggregometer-well (37° C). After 15 seconds, the cuvette was transferred to an incubator (also at 37° C.) and the contents held at this temperature, without stirring, until 2 minutes postinjection. The cuvette was then returned to the aggregometer-well, a base-line being recorded for 2 minutes to detect any spontaneous aggregation. At exactly 4 minutes after injection of the evaluant solution, 50 μl of the appropriate ADP solution was injected and aggregation recorded for 5.5 minutes. Evaluants were studied at least 4 different concentrations. Control experiments (ethanol in a final concentration of 0.095% v/v) were performed in conditions parallel with those involving the respective evaluants, and were initiated either 1 minute prior to or 1 minute after the start of experiments employing the test compounds. This permitted injections to be made precisely at the specified times.

male ICR mice = assay: Mouse antithrombotic assay (collagen-epinephrine thromboembolic death); format: in vivo; conditions: for ED50: ip, 30 min before i.v. collagen-epinephrine challenge, read-out: ED50 (protection from thromboembolic death)
Description: The method employed is similar to Myers, et al's (Proc. Soc. Exp. Biol. Med., Vol. 183, Pages 86-91, 1986) modification of the procedure of DiMinno and Silver (J. Pharmacl. Exp. Therap., Vol. 225, Pages 57-60, 1983). Male ICR mice 25 g-35 g were used in this study. Collagenreagent Horm, containing 1 mg/ml of native collagen fibrils from equine tendons suspended in isotonic glucose solution of pH 2.7 was obtained from Horm -Chemie Momchem GMBH, Munchen, Germany; Epinephrine Injection, USP 1 mg/ml was from Abbott Laboratories, North Chicago, Ill.
Rac.I.2HBr was dissolved in physiological saline and (+)-I (I-C) was dissolved in saline at pH 6.5 at a concentration which yielded the desired dosage when 10 ml/kg of the compound solution was injected intraperitoneally (i.p.) to the mouse. Control mice received 10 ml/kg of the solvent/vehicle intraperitoneally.
Thirty (30) minutes after administration of test compound, the mouse was challenged with intravenous collagen-epinephrine suspension. The procedure is as follows: Fifteen (15) minutes after i.p. administration of test compound, the mouse was given 50-60 mg/kg of pentobarbital sodium (Nembutal). About 10-12 minutes later (when the mouse was anesthetized) the jugular vein was surgically exposed in preparation for the intravenous collagen-epinephrine injection.
Thirty (30) minutes after i.p. administration of the test compound (and about 15 minutes after i.p. Nembutal) the mouse's platelets were challenged with 0.00333 ml/gm (0.10 ml/30 gm mouse) of the intravenous collagen-epinephrine suspension into the jugular vein. [The collagen-epinephrine suspension contained 0.15 mg collagen fibrils and 0.018 mg of epinephrine per ml of the suspension]. The rate of injection for the collagen-epinephrine suspension was consistent from one mouse to the next.
Graded doses of the compound were administered to mice prior to the aggregation challenge. The ED50 was determined graphically from a Probit-log plot of percent of mice protected (Probit) by each dose (log scale) of the compound. […]

| SMILES | IC50 (human blood platelets; read-out: IC50 (compound concentration which inhibits ADP-induced platelet aggregation by 50%) ± S.E., racemic compounds, ADP-induced) | IC50 (human blood platelets; read-out: Ia50 (compound concentrations affecting 50% inhibition of aggregation) ± S.E., Table II, ADP-induced, n = 5 for (0)I and 6 for all others) | IC50 (human blood platelets; read-out: Ia50 ± S.E. ADP-Induced, table 3, ADP-induced (n = 5-6)) | ED50 (male ICR mice) | Potency in inhibiting aggregation relative to (-)-I (antipode) (human blood platelets; ADP as agonist, in vitro) | IC50 (human blood platelets; Table II, ADP-induced, n = 5 for (0)I and 6 for all others, read-out: Ia50 (compound concentrations affecting 50% inhibition of aggregation) ± S.E.) | IC50 (human blood platelets; table 3, ADP-induced (n = 5-6), read-out: Ia50 ± S.E. ADP-Induced) | Activity as a platelet aggregation inhibitor, in words (human blood platelets; as compared to racemic (I) / other stereoisomers, listed as (+) enantiomer, dihydrobromide) | Potency in inhibiting aggregation relative to rac-I (human blood platelets; dihydrobromide) | Potency in inhibiting aggregation relative to rac-I (human blood platelets; listed as (+) enantiomer of Compound I, dihydrobromide) | Potency in protecting mice from thromboembolic death relative to racemic I.2HBr (male ICR mice; i.p.) |
| --- | --- | --- | --- | --- | --- | --- | --- | --- | --- | --- | --- |
| CCN(CC)C(=O)C1CCCN(Cc2ccc(CN3CCCC(C(=O)N(CC)CC)C3)cc2)C1 (racemic) [Compound I, α-α'-Bis[3-(N,N-diethyl-carbamoyl)piperidino]-p-xylene dihydrobromide] | 44.5 ± 12.7 µM | 44.5 ± 127 µM | 44.5 µM | 104 mg/kg and 164 µmol/kg | – | – | – | – | – | – | – |
| CCN(CC)C(=O)C1CCCN(Cc2ccc(CN3CCCC(C(=O)N(CC)CC)C3)cc2)C1 (single isomer, unassigned) [IC, α-α'-Bis(3-N,N-diethylcarbamoyl)piperidino]-p-xylene dihydrobromide] | – | – | – | 33.5 mg/kg and 71.2 µmol/kg | 15 times | 15.3 ± 3.9 µM | 15.3 ± 3.9 µM | unexepectedly superior activity; also recorded: possesses most of the therapeutic activity | three times more potent | two to three times more potent | approximately three times more potent |
